Test systems include DU-145 prostate; MDA-MB-435; MDA-MB-231 breast; UACC-257 melanoma; HOP-92 NSCLC; NCI-H226 lung; OVCAR-4 ovarian; HL-60(TB) leukemia; SK-MEL-5 melanoma; M14 melanoma.
Common to all, as to assay: NCI-60 cell line screen, 48 h

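Cultured in 96-well plates, cells were exposed to test compound for 48 hours across five concentrations. TGI: concentration producing complete growth inhibition.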

Regarding `Nc1ncc2c(n1)-c1ccccc1OC2N1CCCCC1` (stereo not given), the TGI with DU-145 prostate, with MDA-MB-435, in the test with MDA-MB-231 breast, with UACC-257 melanoma, with HOP-92 NSCLC and in the test with NCI-H226 lung was over 100 µM each time. In addition, the TGI with OVCAR-4 ovarian, in the test on HL-60(TB) leukemia, in the test with SK-MEL-5 melanoma and in the test with M14 melanoma was over 100 µM each time.

For `COc1ccc2oc3c(C)cc4c(OC)nnc(OC)c4c3c2c1`, the TGI in the test with DU-145 prostate, with MDA-MB-435, in the test with MDA-MB-231 breast, with UACC-257 melanoma, in the test on HOP-92 NSCLC and in the test on NCI-H226 lung was over 100 µM throughout. For the same molecule, the TGI in the test on OVCAR-4 ovarian, with HL-60(TB) leukemia, with SK-MEL-5 melanoma and with M14 melanoma was over 100 µM each time.

In the case of `CCOC(=O)c1csc(NC(=O)CN2CCCC2)n1`, the TGI in the test on DU-145 prostate, in the test with MDA-MB-435, with MDA-MB-231 breast, in the test with UACC-257 melanoma, in the test with HOP-92 NSCLC and with NCI-H226 lung was over 100 µM throughout. Besides, the TGI with OVCAR-4 ovarian, with HL-60(TB) leukemia, with SK-MEL-5 melanoma and with M14 melanoma was over 100 µM each time.

In the case of `O=C1c2cccc3cc([N+](=O)[O-])cc(c23)C(=O)N1Nc1ccc([N+](=O)[O-])cc1[N+](=O)[O-]`, the TGI in the test with DU-145 prostate is over 46.4 µM; in the test on MDA-MB-435, over 46.4 µM; in the test on MDA-MB-231 breast, 42.9 µM; with UACC-257 melanoma, 24.1 µM; with HOP-92 NSCLC, over 31.6 µM; in the test with NCI-H226 lung it was over 31.6 µM. Besides, the TGI with OVCAR-4 ovarian is over 46.4 µM; in the test on HL-60(TB) leukemia, 27.5 µM; with SK-MEL-5 melanoma, 21.1 µM; with M14 melanoma, over 74.9 µM.

Consider `COC(=O)c1cccc(C)c1C1CN=NC12Cc1cc(C)cc(C)c1C2=O` (stereo not given), for which the TGI is over 100 µM in the test with DU-145 prostate; 66.1 µM in the test with MDA-MB-435; 77.6 µM in the test on MDA-MB-231 breast; over 100 µM with UACC-257 melanoma; over 100 µM in the test with HOP-92 NSCLC; over 100 µM in the test with NCI-H226 lung. Moreover, the TGI in the test on OVCAR-4 ovarian was over 100 µM; in the test on HL-60(TB) leukemia, 47.5 µM; in the test on SK-MEL-5 melanoma it was 77 µM; with M14 melanoma it was 93.6 µM.

On to `COc1ccccc1CC(=O)C(O)(C(F)(F)F)C(F)(F)F`, for which the TGI in the test on DU-145 prostate, in the test on MDA-MB-435, in the test on MDA-MB-231 breast, in the test on UACC-257 melanoma, in the test with HOP-92 NSCLC and in the test with NCI-H226 lung was over 100 µM each time. In addition, the TGI in the test with OVCAR-4 ovarian, with HL-60(TB) leukemia, in the test on SK-MEL-5 melanoma and in the test on M14 melanoma was over 100 µM throughout.

As to `COc1cc2c(/C=C3/C(=O)Nc4cccc(Cl)c43)c(Cl)[nH]c2cc1C`, the TGI is 5.66 µM in the test on DU-145 prostate; 3.44 µM with MDA-MB-435; 3.2 µM in the test on MDA-MB-231 breast; 10.2 µM in the test with UACC-257 melanoma; 22.6 µM in the test on HOP-92 NSCLC; 7.59 µM in the test with NCI-H226 lung. The TGI with OVCAR-4 ovarian is 3.48 µM; in the test with HL-60(TB) leukemia it was 4.56 µM; in the test on SK-MEL-5 melanoma it was 14.3 µM; with M14 melanoma it was 7.78 µM.

Take `O=C(O)C1C2c3ccccc3C(c3ccccc32)C1C(=O)NCC1CC1` (stereo not given): the TGI in the test with DU-145 prostate was over 100 µM; in the test on MDA-MB-435, over 100 µM; with MDA-MB-231 breast, over 100 µM; in the test with UACC-257 melanoma, 70.5 µM; with HOP-92 NSCLC, over 100 µM; in the test with NCI-H226 lung, over 100 µM. For the same molecule, the TGI was over 100 µM in the test with OVCAR-4 ovarian, 77.2 µM with HL-60(TB) leukemia, over 100 µM in the test with SK-MEL-5 melanoma and over 100 µM with M14 melanoma.

Consider `Cc1ccc(S(=O)(=O)N2C3C=CC(C3)[C@@H]2C(Cl)(Cl)Cl)cc1` (stereo not given in full), for which the TGI in the test with DU-145 prostate is over 81.2 µM; with MDA-MB-435 it was over 88.4 µM; in the test with MDA-MB-231 breast, 33.3 µM; in the test with UACC-257 melanoma it was 60.5 µM; in the test on HOP-92 NSCLC it was 38.1 µM; with NCI-H226 lung, 60.9 µM. Besides, the TGI in the test with OVCAR-4 ovarian is over 77.1 µM; in the test with HL-60(TB) leukemia, over 47 µM; with SK-MEL-5 melanoma it was 38.3 µM; in the test with M14 melanoma, 39.1 µM.

Source of the values: PubChem BioAssay (NCI).
